According to US20040018515A1, “Compositions selective for adenosine diphosphate and methods of using same” (priority 2002, published 2004):

Experiments:
Format in all cases: biochemical
ppERK [1] = assay: ADP aptamer F01-based kinase SPA; settings: ADP SPA with ADP F01 aptamer; 3H-ATP and MBP; FIG. 34, 35
Source text: An ADP aptamer will concentrate the tritiated ADP released by kinase on the surface of the flash plate and generate a scintillation proximity signal detectable in a Topcount instrument.

ppERK [2] = assay: 96-well high throughput screening (HTS) ppERK kinase assay
Experimental: A 96-well high throughput screening (HTS) ppERK kinase assay was constructed using the ADP F01 aptamer in an SPA. […] This HTS assay was used to assess the relative inhibitory activity of 100 test compounds at 10 μM concentration (FIG. 37). This HTS assay was performed three times (FIGS. 37A, 37B and 37C).

ppERK [3] = assay: Minimized ADP aptamer F01-based kinase SPA; set-up: Initial Rate: unit not given here; settings: for inhibition of ppERK activity (decreased signal in the ADP SPA): non-biotinylated minimized ADP aptamer on capture probe, FIG. 44-46
Experimental: An ADP aptamer will concentrate the tritiated ADP released by kinase on the surface of the flash plate and generate a signal detectable in a Topcount scintillation counter. For the study presented, minimized ADP aptamer (JD37.98A) (FIG. 42, SEQ ID NO: 1 19) was directly 3′-biotinylated and immobilized onto NEN streptavidin flashplates. Specifically, select assay wells were incubated with 5 pmol of JD37.98A directly 3′-biotinylated aptamer in 25 μl of PBS Buffer:BupH (0.05% tRNA, 0.025% Tween 20) with shaking at 650 RPM for 30 min. Unbound biotinylated aptamer probe was rinsed from the plate with three 1×PBS washes and dried as previously described. In following experiments the production of ^3H-ADP from ^3H-ATP was detected from ppERK using streptavidin coated flash plate wells that were incubated with 60 pmol of MK08.112A biotinylated capture probe in 30 μl of PBS Buffer:BupH (0.05% tRNA, 0.025% Tween 20) for 15 min with shaking at 650 RPM. Unbound probe was removed from the plate with three 1×PBS washes and blotted dry as described above. JD37.98A (150 pmol; not biotinylated) minimized ADP aptamer transcribed with capture probe sequence was added to select wells in 30 μl 1×PBS and incubated for 30 min with shaking at shaking at 650 RPM, Unbound probe was removed with three PBS washes and the plates were blotted dry as described above. Kinase reactions were carried out in a 30 μl final sample volume as follows. Stock 15 nM ppERK enzyme solution was prepared in selection buffer and incubated for 10 min at room temperature. Kinase test reactions were initiated by adding 1 μl test sample, e.g., inhibitor, to 14 μl selection buffer containing 1 mM DTT, […], and 2.7 μM ^3H-ATP and then combining this mixture with an equal volume of 15 nM ppERK enzyme solution. Kinase test reaction was immediately transferred to the appropriate test well and the reaction monitored on a TopCount, ^3H SPA scintillation counter over 900 min.

[4] = FIG. 37A, test compounds at 10 μM, 40 nM ppERK, 1.35 μM 3H-ATP, 10 μM MBP
[5] = Concentration 0.05 (unit not given)
[6] = Concentration 0.1 (unit not given)
[7] = Concentration 0.5 (unit not given)
[8] = Concentration 2.5 (unit not given)
[9] = Concentration 5 (unit not given)
[10] = Concentration 1.8 (unit not given)
[11] = Concentration 3.6 (unit not given)
[12] = Concentration 18 (unit not given)
[13] = Concentration 90 (unit not given)
[14] = Concentration 180 (unit not given)
[15] = Concentration 0.2 (unit not given)
[16] = Concentration 1 (unit not given)
[17] = Concentration 10 (unit not given)

Nc1ncnc2c1c(I)cn2[C@@H]1O[C@H](CO)[C@@H](O)[C@H]1O [ITU]
inhibition of ppERK (ppERK [1]): concentration-dependent inhibition | reaction rate in the HTS ppERK assay (ppERK [2]; [4]): significantly decreased the reaction rate | 20% Reacted Time (ppERK [3]; [5]): 57.8 min | Initial Rate (ppERK [3]; [5]): 46.949 | Saturation Time (ppERK [3]; [5]): 289 min | 20% Reacted Time (ppERK [3]; [6]): 59.6 min | Initial Rate (ppERK [3]; [6]): 48.324 | Saturation Time (ppERK [3]; [6]): 298 min | 20% Reacted Time (ppERK [3]; [7]): 59.6 min | Initial Rate (ppERK [3]; [7]): 36.486 | Saturation Time (ppERK [3]; [7]): 298 min | 20% Reacted Time (ppERK [3]; [8]): 83 min | Initial Rate (ppERK [3]; [8]): 19.275 | Saturation Time (ppERK [3]; [8]): 415 min | 20% Reacted Time (ppERK [3]; [9]): 113.6 min | Initial Rate (ppERK [3]; [9]): 10.772 | Saturation Time (ppERK [3]; [9]): 568 min | inhibition of ppERK activity (decreased signal in the ADP SPA) (ppERK [3]): concentration-dependent inhibition

Nc1nccc(-c2c(-c3ccc(F)cc3)ncn2C2CCNCC2)n1 [SB220025]
inhibition of ppERK (ppERK [1]): concentration-dependent inhibition | 20% Reacted Time (ppERK [3]; [10]): 92 min | Initial Rate (ppERK [3]; [10]): 23.883 | Saturation Time (ppERK [3]; [10]): 460 min | 20% Reacted Time (ppERK [3]; [11]): 101 min | Initial Rate (ppERK [3]; [11]): 20.427 | Saturation Time (ppERK [3]; [11]): 505 min | 20% Reacted Time (ppERK [3]; [12]): 117.2 min | Initial Rate (ppERK [3]; [12]): 4.716 | Saturation Time (ppERK [3]; [12]): 586 min | 20% Reacted Time (ppERK [3]; [13]): 128 min | Initial Rate (ppERK [3]; [13]): 2.8722 | Saturation Time (ppERK [3]; [13]): 640 min | 20% Reacted Time (ppERK [3]; [14]): 180 min | Initial Rate (ppERK [3]; [14]): 2.3262 | Saturation Time (ppERK [3]; [14]): 900 min | inhibition of ppERK activity (decreased signal in the ADP SPA) (ppERK [3]): concentration-dependent inhibition

CN[C@@H]1C[C@H]2O[C@@](C)([C@@H]1OC)n1c3ccccc3c3c4c(c5c6ccccc6n2c5c31)C(=O)NC4 [staurosporine]
reaction rate in the HTS ppERK assay (ppERK [2]; [4]): significantly decreased the reaction rate | reaction rate in the HTS ppERK assay (ppERK [2]; FIG. 37B (ADP-HH screening)): significantly decreased the reaction rate | reaction rate in the HTS ppERK assay (ppERK [2]; FIG. 37C (ADP-SPA screening (2nd))): significantly decreased the reaction rate | 20% Reacted Time (ppERK [3]; [6]): 52.4 min | Initial Rate (ppERK [3]; [6]): 45.419 | Saturation Time (ppERK [3]; [6]): 262 min | 20% Reacted Time (ppERK [3]; [15]): 70.4 min | Initial Rate (ppERK [3]; [15]): 40.907 | Saturation Time (ppERK [3]; [15]): 352 min | 20% Reacted Time (ppERK [3]; [16]): 52.4 min | Initial Rate (ppERK [3]; [16]): 23.708 | Saturation Time (ppERK [3]; [16]): 262 min | 20% Reacted Time (ppERK [3]; [9]): 110 min | Initial Rate (ppERK [3]; [9]): 10.855 | Saturation Time (ppERK [3]; [9]): 550 min | 20% Reacted Time (ppERK [3]; [17]): 110 min | Initial Rate (ppERK [3]; [17]): 5.9375 | Saturation Time (ppERK [3]; [17]): 550 min
